From publication PMC4632735, “Ferulic Acid Exerts Anti-Angiogenic and Anti-Tumor Activity by Targeting Fibroblast Growth Factor Receptor 1-Mediated Angiogenesis” (International Journal of Molecular Sciences, 2015)

Legend:
FGFR1 = biological target: T1, FGFR1 (Homo sapiens, UniProt P11362); test: FRET-based in vitro kinase assay (Z'-LYTE); radiometric kinase panel gave […] inhibition at […]; type: biochemical
T1 construct: kinase domain

FGFR2 = FGFR2 (Homo sapiens, UniProt P21802); test: in vitro kinase assay; radiometric kinase panel gave […] inhibition at […]; type: biochemical
Sequence of FGFR2 (P21802 22-821): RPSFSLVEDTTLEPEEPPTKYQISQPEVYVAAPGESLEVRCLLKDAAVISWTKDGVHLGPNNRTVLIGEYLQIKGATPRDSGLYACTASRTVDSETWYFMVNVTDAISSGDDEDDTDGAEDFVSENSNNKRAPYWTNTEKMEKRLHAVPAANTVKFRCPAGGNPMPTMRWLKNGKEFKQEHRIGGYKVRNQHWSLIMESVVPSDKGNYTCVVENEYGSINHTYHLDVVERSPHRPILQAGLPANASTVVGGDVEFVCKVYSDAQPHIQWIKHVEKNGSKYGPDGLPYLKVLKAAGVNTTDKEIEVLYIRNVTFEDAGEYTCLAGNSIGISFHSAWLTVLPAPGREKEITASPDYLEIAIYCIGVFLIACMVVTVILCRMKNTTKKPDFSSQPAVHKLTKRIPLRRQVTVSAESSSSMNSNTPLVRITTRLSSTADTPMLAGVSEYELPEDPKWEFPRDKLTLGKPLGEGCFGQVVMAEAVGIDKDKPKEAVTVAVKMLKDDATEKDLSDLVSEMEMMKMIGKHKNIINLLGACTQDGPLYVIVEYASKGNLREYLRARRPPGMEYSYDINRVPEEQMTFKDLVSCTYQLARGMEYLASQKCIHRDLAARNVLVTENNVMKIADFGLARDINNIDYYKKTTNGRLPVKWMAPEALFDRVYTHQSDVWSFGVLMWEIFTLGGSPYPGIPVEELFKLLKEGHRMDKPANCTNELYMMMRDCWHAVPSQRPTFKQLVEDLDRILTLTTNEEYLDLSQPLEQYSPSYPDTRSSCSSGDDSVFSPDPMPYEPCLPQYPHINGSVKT

T1 sequence (P11362 478-767 limits assumed): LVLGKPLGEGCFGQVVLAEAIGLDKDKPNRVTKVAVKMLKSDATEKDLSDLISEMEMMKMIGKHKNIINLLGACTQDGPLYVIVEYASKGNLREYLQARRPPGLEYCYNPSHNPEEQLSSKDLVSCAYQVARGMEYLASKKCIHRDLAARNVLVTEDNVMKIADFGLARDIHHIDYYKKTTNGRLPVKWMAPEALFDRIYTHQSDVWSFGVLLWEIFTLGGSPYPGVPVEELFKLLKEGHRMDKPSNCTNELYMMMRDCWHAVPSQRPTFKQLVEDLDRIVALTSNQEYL

COc1cc(/C=C/C(=O)O)ccc1O [FA, 4-hydroxy-3-methoxycinnamic acid]
IC50 (FGFR1): ~3.78 µM | IC50 (FGFR2): ~12.5 µM
